These results are taken from patent US12371428B2 (Exelixis, Inc., priority 2019, dated 2025).

Where only a bound is given, the exact number is not on record here.

In test [1] the target is Human MER (residues 528-999) (Homo sapiens (Human), UniProt Q12866). The test can be described thus: Human Mer kinase assay, HTRF KinEase (Example C-2). The test is classed as biochemical. The note with it: protocol of Example C-2 (other compounds). The procedure, abridged: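 HTRF KinEase TK assay with MER 528-999 (1 ng/well) in enzymatic buffer plus 5 mM MgCl2 and 1 mM DTT, biotinylated peptide substrate and ATP at Km (40 μM), 3% DMSO final, 60 min at room temperature. Stopped with EDTA detection mix (SA-XL665, TK antibody-Eu3+), read at 665/620 nm after 60 min; IC50 from 10-point 4-parameter fit, normalized to DMSO and 1 μM reference.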
Chain of Human MER (residues 528-999) (Q12866 528-999): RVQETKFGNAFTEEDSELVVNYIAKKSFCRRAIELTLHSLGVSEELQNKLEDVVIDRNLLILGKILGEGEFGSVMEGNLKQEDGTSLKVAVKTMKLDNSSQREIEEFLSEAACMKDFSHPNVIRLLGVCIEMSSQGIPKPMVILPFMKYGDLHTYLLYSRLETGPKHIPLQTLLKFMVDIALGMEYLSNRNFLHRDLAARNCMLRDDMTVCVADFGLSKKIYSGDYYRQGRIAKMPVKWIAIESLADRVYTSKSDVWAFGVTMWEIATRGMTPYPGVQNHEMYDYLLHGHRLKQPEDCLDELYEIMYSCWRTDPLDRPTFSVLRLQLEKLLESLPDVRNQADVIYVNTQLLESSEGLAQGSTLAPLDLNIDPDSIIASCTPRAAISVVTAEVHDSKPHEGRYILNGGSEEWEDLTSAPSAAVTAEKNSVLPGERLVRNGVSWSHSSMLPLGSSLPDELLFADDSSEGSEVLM

Test [2] concerns the target Human KDR (residues 790-1356) (Homo sapiens (Human), UniProt P35968). The test can be described thus: Human KDR kinase assay, HTRF KinEase (Example B-2). The test is classed as biochemical. As to conditions: protocol of Example B-2 (other compounds). An outline of the steps: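 Human KDR residues 790-1356 (0.1 ng/well) in buffer with 5 mM MgCl2, 1 mM MnCl2, 1 mM DTT, biotinylated peptide substrate, ATP at Km (4.0 μM), 3% DMSO, 10 compound concentrations; 40 min, room temperature. EDTA stop, streptavidin-XL665/Eu-TK antibody HTRF read 665/620 nm; 4-parameter IC50.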

Test [3] addresses Human MET (residues 956-1390) (Homo sapiens (Human), UniProt P08581). The test can be described thus: Human Met kinase assay, HTRF KinEase (Example D-2). The test is classed as biochemical. The note with it: protocol of Example D-2 (other compounds); read-out: c-Met IC50. The procedure, abridged: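 HTRF KinEase assay on MET residues 956-1390 (0.1 ng/well) in buffer with 5 mM MgCl2, 1 mM DTT and 1 mM MnCl2, with biotinylated peptide substrate, ATP at Km, 10 compound concentrations and 3% DMSO final, run 40 min at room temperature. The […] signal was normalized to DMSO and to 1 μM reference compound, and IC50 came from a 4-parameter logistic fit.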

For test [4], the target named is KDR (phospho-KDR, VEGF165-stimulated HUVEC cells) (Homo sapiens (Human), UniProt P35968). The test can be described thus: KDR autophosphorylation ELISA in HUVEC cells (Example G). The test is classed as cell-based. The note with it: cellular activity; KDR autophosphorylation ELISA in HUVEC cells. An outline of the steps: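 HUVEC cells, serum-starved 24 h, were treated 1 h with an 8-point compound dilution (0.3% DMSO) and then stimulated with 100 ng/mL VEGF165 for 5 min. Phospho-KDR in lysates was quantified by sandwich ELISA against a phospho-KDR standard. IC50 from a 4-parameter logistic fit, normalised between stimulated DMSO and unstimulated controls.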
Chain of KDR (phospho-KDR, VEGF165-stimulated HUVEC cells) (P35968 20-1356): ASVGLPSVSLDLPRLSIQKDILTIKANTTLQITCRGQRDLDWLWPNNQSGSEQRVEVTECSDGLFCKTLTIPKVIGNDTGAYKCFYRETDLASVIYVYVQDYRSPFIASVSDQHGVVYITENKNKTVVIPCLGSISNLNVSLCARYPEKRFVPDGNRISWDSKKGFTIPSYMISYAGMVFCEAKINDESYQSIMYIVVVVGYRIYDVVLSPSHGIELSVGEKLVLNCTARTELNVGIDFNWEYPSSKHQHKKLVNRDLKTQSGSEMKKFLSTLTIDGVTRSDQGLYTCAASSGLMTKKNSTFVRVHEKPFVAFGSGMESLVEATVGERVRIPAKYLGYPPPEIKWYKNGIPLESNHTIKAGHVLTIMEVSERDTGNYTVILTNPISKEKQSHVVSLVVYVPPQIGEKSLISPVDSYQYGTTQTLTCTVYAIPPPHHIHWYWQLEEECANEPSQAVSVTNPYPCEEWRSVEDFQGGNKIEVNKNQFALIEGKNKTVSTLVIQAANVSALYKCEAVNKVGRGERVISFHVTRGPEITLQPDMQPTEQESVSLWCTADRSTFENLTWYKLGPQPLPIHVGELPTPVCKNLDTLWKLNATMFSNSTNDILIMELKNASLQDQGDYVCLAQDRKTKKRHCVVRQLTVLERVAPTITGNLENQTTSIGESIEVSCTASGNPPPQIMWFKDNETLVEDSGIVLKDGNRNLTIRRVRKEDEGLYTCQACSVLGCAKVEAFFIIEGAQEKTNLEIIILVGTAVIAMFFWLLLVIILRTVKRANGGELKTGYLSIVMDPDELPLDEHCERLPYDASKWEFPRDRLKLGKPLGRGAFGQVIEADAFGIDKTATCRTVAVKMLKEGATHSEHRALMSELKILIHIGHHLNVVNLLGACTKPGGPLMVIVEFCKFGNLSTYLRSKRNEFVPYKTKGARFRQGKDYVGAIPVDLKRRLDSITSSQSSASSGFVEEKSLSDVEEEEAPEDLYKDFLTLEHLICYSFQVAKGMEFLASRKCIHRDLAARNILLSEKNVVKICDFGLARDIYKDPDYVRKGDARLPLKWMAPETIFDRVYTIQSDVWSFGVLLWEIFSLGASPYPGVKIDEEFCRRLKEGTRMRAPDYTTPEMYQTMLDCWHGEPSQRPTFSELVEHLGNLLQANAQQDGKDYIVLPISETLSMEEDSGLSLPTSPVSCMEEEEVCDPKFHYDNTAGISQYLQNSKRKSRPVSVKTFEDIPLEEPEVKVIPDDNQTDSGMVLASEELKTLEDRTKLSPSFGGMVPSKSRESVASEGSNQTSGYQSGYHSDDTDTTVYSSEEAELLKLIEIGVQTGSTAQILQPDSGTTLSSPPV

Chain of Human KDR (residues 790-1356) (P35968 790-1356): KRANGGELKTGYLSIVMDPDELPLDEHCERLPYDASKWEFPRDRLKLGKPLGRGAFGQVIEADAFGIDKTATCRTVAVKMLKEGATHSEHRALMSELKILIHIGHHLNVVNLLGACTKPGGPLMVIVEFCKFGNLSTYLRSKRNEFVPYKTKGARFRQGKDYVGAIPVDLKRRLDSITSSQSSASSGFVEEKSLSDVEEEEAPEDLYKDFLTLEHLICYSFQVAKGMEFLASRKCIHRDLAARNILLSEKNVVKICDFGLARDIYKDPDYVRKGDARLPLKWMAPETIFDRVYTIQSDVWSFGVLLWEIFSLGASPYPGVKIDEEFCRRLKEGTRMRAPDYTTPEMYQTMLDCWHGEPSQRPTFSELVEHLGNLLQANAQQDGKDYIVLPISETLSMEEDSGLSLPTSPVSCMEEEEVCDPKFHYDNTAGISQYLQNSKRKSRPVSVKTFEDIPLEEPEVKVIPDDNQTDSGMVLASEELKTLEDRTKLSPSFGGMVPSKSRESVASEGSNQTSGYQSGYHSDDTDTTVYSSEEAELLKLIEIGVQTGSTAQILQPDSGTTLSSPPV
Chain of Human MET (residues 956-1390) (P08581 956-1390): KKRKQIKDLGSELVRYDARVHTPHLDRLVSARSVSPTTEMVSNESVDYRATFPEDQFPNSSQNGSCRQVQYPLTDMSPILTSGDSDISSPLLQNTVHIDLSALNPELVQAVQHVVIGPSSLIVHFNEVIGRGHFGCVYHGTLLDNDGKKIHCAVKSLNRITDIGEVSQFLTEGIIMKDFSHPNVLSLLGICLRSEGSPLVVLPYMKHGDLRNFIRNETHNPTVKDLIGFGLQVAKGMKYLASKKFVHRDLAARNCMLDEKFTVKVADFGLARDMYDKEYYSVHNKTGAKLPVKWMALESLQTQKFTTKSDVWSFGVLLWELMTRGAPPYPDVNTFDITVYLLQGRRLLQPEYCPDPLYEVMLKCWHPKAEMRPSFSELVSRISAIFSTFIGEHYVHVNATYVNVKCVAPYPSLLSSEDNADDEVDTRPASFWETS

Regarding `COCCOc1cc2nccc(Oc3ccc(NC(=O)c4c(C)nc(C)c(-c5ccc(F)cc5)c4O)cc3F)c2nc1OC` [Compound 432, N-[3-fluoro-4-[[6-methoxy-7-(2-methoxyethoxy)-1,5-naphthyridin-4-yl]oxy]phenyl]-5-(4-fluorophenyl)-4-hydroxy-2,6-dimethylpyridine-3-carboxamide], the IC50 in test [1], in test [2], in test [3] and in test [4] was less than 0.1 µM each time.
`COc1cc2nccc(Oc3ccc(NC(=O)c4nn(C)c(C)c(-c5ccc(F)cc5)c4=O)cc3)c2nc1OC` [Compound 91, N-[4-[(6,7-Dimethoxy-1,5-naphthyridin-4-yl)oxy]phenyl]-5-(4-fluorophenyl)-1,6-dimethyl-4-oxopyridazine-3-carboxamide]: the IC50 in test [1] was less than 0.1 µM; in test [2] it was 0.1 to 0.3 µM; in test [3] it was less than 0.1 µM; in test [4], 0.1 to 0.3 µM.
For `COc1cc2nccc(Oc3ccc(NC(=O)c4cn(C)c(C)c(-c5ccc(F)cc5)c4=O)cc3F)c2nc1OC` [Compound 58, N-[4-[(6,7-Dimethoxy-1,5-naphthyridin-4-yl)oxy]-3-fluorophenyl]-5-(4-fluorophenyl)-1,6-dimethyl-4-oxopyridine-3-carboxamide], the IC50 in test [1], in test [2], in test [3] and in test [4] was less than 0.1 µM each time.
As to `COc1cnc2c(Oc3ccc(NC(=O)c4ncc(C)n(-c5ccc(F)cc5)c4=O)cc3F)ccnc2c1` [Compound 94, N-[3-Fluoro-4-[(7-methoxy-1,5-naphthyridin-4-yl)oxy]phenyl]-4-(4-fluorophenyl)-5-methyl-3-oxopyrazine-2-carboxamide], the IC50 in test [1] is less than 0.1 µM; in test [2], greater than 0.3 µM; in test [3], less than 0.1 µM; in test [4], greater than 0.3 µM.
On to `COc1cc2nccc(Oc3ccc(NC(=O)c4n[nH]c(C)c(-c5ccc(F)cc5)c4=O)cc3F)c2nc1OC` [Compound 88, N-[4-[(6,7-Dimethoxy-1,5-naphthyridin-4-yl)oxy]-3-fluorophenyl]-5-(4-fluorophenyl)-6-methyl-4-oxo-1H-pyridazine-3-carboxamide], for which the IC50 in test [1], in test [2], in test [3] and in test [4] was less than 0.1 µM each time.
In the case of `COc1cc2nccc(Oc3ccc(NC(=O)c4cn(C5CC5)c(C)c(-c5ccc(F)cc5C)c4=O)cc3)c2nc1OC` [Compound 440, 1-cyclopropyl-N-[4-[(6,7-dimethoxy-1,5-naphthyridin-4-yl)oxy]phenyl]-5-(4-fluoro-2-methylphenyl)-6-methyl-4-oxopyridine-3-carboxamide], the concentration for half-maximal inhibition (IC50) was less than 0.1 µM in test [1], greater than 0.3 µM in test [2], less than 0.1 µM in test [3] and greater than 0.3 µM in test [4].
`Cc1cc(F)ccc1-c1c(C)nnc(C(=O)Nc2ccc(Oc3ccnc4cc(C)c(F)nc34)c(F)c2)c1O` [Compound 430, N-[3-fluoro-4-[(6-fluoro-7-methyl-1,5-naphthyridin-4-yl)oxy]phenyl]-5-(4-fluoro-2-methylphenyl)-4-hydroxy-6-methylpyridazine-3-carboxamide]: the IC50 in test [1] was less than 0.1 µM; in test [2] it was greater than 0.3 µM; in test [3], less than 0.1 µM; in test [4], greater than 0.3 µM.
For the compound `COc1cc2nccc(Oc3ccc(NC(=O)c4cn(C)c(OC)c(-c5ccc(F)cc5)c4=O)cc3F)c2nc1OC` [Compound 78, N-[4-[(6,7-Dimethoxy-1,5-naphthyridin-4-yl)oxy]-3-fluorophenyl]-5-(4-fluorophenyl)-6-methoxy-1-methyl-4-oxopyridine-3-carboxamide], the IC50 in test [1] is less than 0.1 µM; in test [2] it was less than 0.1 µM; in test [3], less than 0.1 µM; in test [4], 0.1 to 0.3 µM.
